Source: patent US20110144079A1, “ANTIMICROBIAL SYSTEM” (priority 2008, published 2011)

Key:
Format in all cases: cell-based
S. aureus PIII [1] = experiment: Broth microdilution MIC
Procedure: (§1) Broth microdilution tests were performed according to NCCLS guidelines. Serial two-fold dilutions of each imidazolium salt (from an original working solution which had been 0.22 μm sterile filtered) in Mueller-Hinton Broth (MHB) (100 μl) were prepared in 96-well micro-titre plates over the range 0.0000625-1% w/v. The inoculum to be tested was prepared by adjusting the turbidity of an actively overnight growing broth culture in MHB to an optical density at 550 nm equivalent to 1×10^8 CFU/ml. The suspension was further diluted to provide a final inoculum density of 2×10^5 CFU/ml in MHB as verified by total viable count. The inoculum to be tested (100 μl, 2×10^5 CFU ml^−1) was added to each well of the microdilution trays which were incubated aerobically for 24 h at 37° C. Positive and negative growth controls were included in every assay (6 replicates). After determining the MICs, minimum bactericidal concentrations (MBCs) were determined by spreading 20 μl of suspension from wells showing no growth onto MHA plates, which were then incubated for 24 h and examined for 99.9% killing.

B. cereus [2] = experiment: Biofilm assay (Calgary Biofilm Device), MBEC; conditions: B. cereus 24 h biofilm, 24 h challenge
Procedure: (§2) Biofilms of each test organism were grown in the Calgary Biofilm Device (commercially available as the MBEC Assay™ for Physiology & Genetics, Innovotech Inc., Edmonton, Alberta, Canada). The device, a micro-titre plated based assay, consists of two parts; a microtitre plate containing the inoculated test medium and a polystyrene lid with 96 identical pegs on which the microbial biofilm forms under gyrorotary incubation. The biofilm assay was conducted according to the MBEC™ assay protocol as supplied by the manufacturer, with slight modifications. Inocula of each test organism were prepared in MHB as described above and adjusted to provide a final inoculum density of ˜10^7 CFU ml^−1 (as confirmed by viable count). 150 μl of the inoculated media was transferred to each well of the 96-well microtitre plate and the assay plate lid, bearing 96 pegs was placed into the microtitre plate. The MBEC assay plates were placed in a gyrorotary incubator (37° C., 95% relative humidity) for 24 h to permit growth and comparison of 24 h biofilms of each test strain. Positive and negative growth controls were included in each plate (6 replicates). Initial and 24 h planktonic viable counts were measured, as were 24 h biofilm counts, expressed as CFU peg^−1, according to manufacturers instructions. After 24 h, the peg lid of the MBEC assay plate was gently rinsed three times. After rinsing, the peg lid of the MBEC assay was transferred to a ‘challenge’ plate. Serial dilutions of each imidazolium salt were prepared in 200 μl of MHB containing various concentrations of IL in each well. Positive growth control and sterility control were included in each assay plate. […] Biofilms were dislodged into recovery media by sonication for 5 minutes and the peg lid discarded. The recovery plate is incubated overnight and visually checked after 24 h for turbidity. In addition, optical density measurements for each plate were recorded at 550 nm. Clear wells were taken as evidence of biofilm eradication and the MBEC value was assigned as the lowest concentration at which no growth was observed after 24 h incubation. Plates were incubated for a further 24 h to confirm biofilm eradication concentrations.

K. aerogenes NCTC 7427 [3] = experiment: Biofilm assay (Calgary Biofilm Device), MBEC; conditions: K. aerogenes NCTC 7427 24 h biofilm, 24 h challenge
Procedure: as §2

E. coli NCTC 8196 [4] = experiment: Biofilm assay (Calgary Biofilm Device), MBEC; conditions: E. coli NCTC 8196 24 h biofilm, 24 h challenge
Procedure: as §2

[5] = tested on: S. epidermidis ATCC 35984; experiment: Biofilm assay (Calgary Biofilm Device), MBEC; conditions: S. epidermidis ATCC 35984 24 h biofilm, 24 h challenge
Procedure: as §2

S. aureus PIII [6] = experiment: Biofilm assay (Calgary Biofilm Device), MBEC; conditions: S. aureus PIII 24 h biofilm, 24 h challenge
Procedure: as §2

C. tropicalis NCTC 7393 [7] = experiment: Biofilm assay (Calgary Biofilm Device), MBEC; conditions: C. tropicalis NCTC 7393 24 h biofilm, 24 h challenge
Procedure: as §2

P. aeruginosa PA01 [8] = experiment: Biofilm assay (Calgary Biofilm Device), MBEC; conditions: P. aeruginosa PA01 24 h biofilm, 24 h challenge
Procedure: as §2

E-MRSA 15 [9] = experiment: Biofilm assay (Calgary Biofilm Device), MBEC; conditions: E-MRSA 15 24 h biofilm, 24 h challenge
Procedure: as §2

P. mirabilis NCTC 12442 [10] = experiment: Biofilm assay (Calgary Biofilm Device), MBEC; conditions: P. mirabilis NCTC 12442 24 h biofilm, 24 h challenge
Procedure: as §2

B. cereus [11] = experiment: Broth microdilution MIC/MBC; conditions: for MBC: 99.9% killing; for MIC: 24 h at 37° C.
Procedure: as §1

K. aerogenes NCTC 7427 [12] = experiment: Broth microdilution MIC/MBC; conditions: for MBC: K. aerogenes NCTC 7427, 99.9% killing; for MIC: K. aerogenes NCTC 7427, 24 h at 37° C.
Procedure: as §1

E. coli NCTC 8196 [13] = experiment: Broth microdilution MIC/MBC; conditions: for MBC: E. coli NCTC 8196, 99.9% killing; for MIC: E. coli NCTC 8196, 24 h at 37° C.
Procedure: as §1

[14] = tested on: S. epidermidis ATCC 35984; experiment: Broth microdilution MIC/MBC; conditions: for MBC: S. epidermidis ATCC 35984, 99.9% killing; for MIC: S. epidermidis ATCC 35984, 24 h at 37° C.
Procedure: as §1

S. aureus ATCC 29213 = experiment: Broth microdilution MIC/MBC; conditions: for MBC: S. aureus ATCC 29213, 99.9% killing; for MIC: S. aureus ATCC 29213, 24 h at 37° C.
Procedure: as §1

[15] = tested on: S. epidermidis ATCC 12228; experiment: Broth microdilution MIC/MBC; conditions: for MBC: S. epidermidis ATCC 12228, 99.9% killing; for MIC: S. epidermidis ATCC 12228, 24 h at 37° C.
Procedure: as §1

C. tropicalis NCTC 7393 [16] = experiment: Broth microdilution MIC/MBC; conditions: for MBC: C. tropicalis NCTC 7393, 99.9% killing; for MIC: C. tropicalis NCTC 7393, 24 h at 37° C.
Procedure: as §1

P. aeruginosa PA01 [17] = experiment: Broth microdilution MIC/MBC; conditions: for MBC: P. aeruginosa PA01, 99.9% killing; for MIC: P. aeruginosa PA01, 24 h at 37° C., read-out: MIC
Procedure: as §1

E-MRSA 15 [18] = experiment: Broth microdilution MIC/MBC; conditions: for MBC: E-MRSA 15, 99.9% killing; for MIC: E-MRSA 15, 24 h at 37° C.
Procedure: as §1

P. mirabilis NCTC 12442 [19] = experiment: Broth microdilution MIC/MBC; conditions: for MBC: P. mirabilis NCTC 12442, 99.9% killing; for MIC: P. mirabilis NCTC 12442, 24 h at 37° C.
Procedure: as §1

SMILES | MIC (S. aureus PIII [1]) [µM] | MBEC (B. cereus [2]) [µM] | MBEC (K. aerogenes NCTC 7427 [3]) [µM] | MBEC (E. coli NCTC 8196 [4]) [µM] | MBEC [5] [µM] | MBEC (S. aureus PIII [6]) [µM] | MBEC (C. tropicalis NCTC 7393 [7]) [µM] | MBEC (P. aeruginosa PA01 [8]) [µM] | MBEC (E-MRSA 15 [9]) [µM] | MBEC (P. mirabilis NCTC 12442 [10]) [µM] | MBC (B. cereus [11]) [µM] | MIC (B. cereus [11]) [µM] | MBC (K. aerogenes NCTC 7427 [12]) [µM] | MIC (K. aerogenes NCTC 7427 [12]) [µM] | MBC (E. coli NCTC 8196 [13]) [µM] | MIC (E. coli NCTC 8196 [13]) [µM] | MBC [14] [µM] | MIC [14] [µM] | MBC (S. aureus ATCC 29213) [µM] | MIC (S. aureus ATCC 29213) [µM] | also measured
CCCCCCCCCC[n+]1cccc2ccccc21.[Br-] [1-alkyl-3-quinolinium bromides 10] | 111.5 | 3584 | 4568 | 3584 | 896 | 1956 | 1792 | 1792 | 1792 | 3584 | 278.7 | 223 | 167.22 | 55.74 | 167.22 | 55.74 | 111.48 | 55.74 | 111.48 | 111.5 | MBC [15]: 111.48 µM; MIC [15]: 55.74 µM; MBC (C. tropicalis NCTC 7393 [16]): 111.48 µM; MIC (C. tropicalis NCTC 7393 [16]): 55.74 µM; MBC (P. aeruginosa PA01 [17]): 446 µM; MIC (P. aeruginosa PA01 [17]): 223 µM; MBC (E-MRSA 15 [18]): 111.48 µM; MIC (E-MRSA 15 [18]): 55.74 µM; MBC (P. mirabilis NCTC 12442 [19]): 167.22 µM; MIC (P. mirabilis NCTC 12442 [19]): 111.5 µM
CCCCCCCC[n+]1cccc2ccccc21.[Br-] [1-alkyl-3-quinolinium bromides 8] | 242 | 7826 | 9782 | 8315 | 3913 | 7826 | 7826 | 8315 | 7826 | 7826 | 726 | 484.78 | 242 | 60 | 242 | 121.2 | 242 | 121.2 | 484 | 242 | MBC [15]: 242 µM; MIC [15]: 121.2 µM; MBC (C. tropicalis NCTC 7393 [16]): 363 µM; MIC (C. tropicalis NCTC 7393 [16]): 242 µM; MBC (P. aeruginosa PA01 [17]): 605 µM; MIC (P. aeruginosa PA01 [17]): 484.78 µM; MBC (E-MRSA 15 [18]): 484 µM; MIC (E-MRSA 15 [18]): 242 µM; MBC (P. mirabilis NCTC 12442 [19]): 363 µM; MIC (P. mirabilis NCTC 12442 [19]): 242 µM
CCCCCCCCCCCC[n+]1cccc2ccccc21.[Br-] [1-alkyl-3-quinolinium bromides 12] | 25.81 | 774.25 | 981.25 | 827.94 | 413.97 | 619.5 | 413.87 | 413.97 | 827.94 | 1655.88 | 77.4 | 51.63 | 38.7 | 12.9 | 38.7 | 25.81 | 25.8 | 12.9 | 51.6 | 25.81 | MBC [15]: 25.8 µM; MIC [15]: 12.9 µM; MBC (C. tropicalis NCTC 7393 [16]): 25.8 µM; MIC (C. tropicalis NCTC 7393 [16]): 12.9 µM; MBC (P. aeruginosa PA01 [17]): 90.33 µM; MIC (P. aeruginosa PA01 [17]): 51.64 µM; MBC (E-MRSA 15 [18]): 25.8 µM; MIC (E-MRSA 15 [18]): 25.8 µM; MBC (P. mirabilis NCTC 12442 [19]): 51.6 µM; MIC (P. mirabilis NCTC 12442 [19]): 25.81 µM
